From PMC4992173, “Divergent synthesis and identification of the cellular targets of deoxyelephantopins” (Nature Communications, 2016)

Tested on: Caco-2 cells
Test: In situ global proteomics profiling of Caco-2 cells (LC-MS/MS, LFQ)
Format: cell-based, human
Settings: LFQ
Protocol: Figure 7 Identification of PPARγ as target of deoxyelephantopin and screening of DEP derivatives as PPARγ antagonists. (a) Quantification of endogenous PPARγ enriched from Caco-2 cells using 10 μM 24c following in situ treatment with DEP (20 μM) or DMSO (normalized LFQ values±s.d. are shown; n=6). (b) Changes in expression levels of five PPARγ-dependent proteins following 24 h treatment of Caco-2 cells with DMSO, rosiglitazone (10 μM), T0070907 (50 μM) or DEP (20 μM; LFQ ratios±s.d. are shown; n=3). **P<0.005 and ***P<0.0005 by two-sided Student's t-test. (c) Gel-based competitive screening of DEP and analogues as PPARγ antagonists against recombinant human enzyme (top). hPPARγ was treated with each compound (20 μM) for 1 h followed by treatment with 24c-Cy3 (10 μM) as probe. Quantification of fluorescence intensity in the competitive screening for PPARγ antagonists (bottom; values±s.d. are shown; n=3).
Caco-2 cells were treated with DMSO, PPARγ agonist rosiglitazone, antagonist T0070907 or DEP for 24 h, the cells were collected and the proteomes were comparatively analysed by LC–MS/MS. […] Furthermore, the list of 43 dysregulated proteins was analysed and classified using the GOrilla pathway analysis tool (Supplementary Fig. 15). […]
In situ global proteomics profiling using LC-MS/MS. Caco- ’ cells/mL) in a 6-well plate, allowed to grow to confluence and to differentiate for 28 days. The wells were washed one time with PBS and treated with either DMSO, 10 µM rosiglitazone, 50 µM T0070907 or 20 µM DEP for 24 hours. Cells were washed two times with PBS and lysates were prepared. Samples (30 µg) were denatured with 6 M urea in 50 mM NH4HCO3, reduced […]
dark. Samples were diluted to 2 M urea with 50 mM NH4HCO3, and digested with trypsin ([…] for 12 hours at 37 °C. Samples were acidified to a final concentration of 5% acetic acid, desalted over a self-packed C18 spin column and […]
dried. […]
LC-MS/MS analysis. Peptides were resuspended in water with 0.1% formic acid (FA) and analyzed using Proxeon EASY-nLC 1000 nano-UHPLC coupled to QExactive Plus Quadrupole-Orbitrap mass spectrometer (Thermo Scientific). The chromatography column […]
H2O (Buffer A) and 0.1% FA in MeCN (Buffer B). Peptides were eluted into the mass spectrometer at a flow rate of 300 nL/min. over a 240 min. linear gradient (3-35% Buffer B) at 50 °C. Data was acquired in data-dependent mode (top- N = ’ […]
and isotope exclusion was enabled.
MaxQuant analysis. The MS data was analyzed with MaxQuant (V1.5.2.8) and searched against the human proteome (Uniprot, 89,649 entries) and a common list of contaminants (included in MaxQuant). The first peptide search tolerance was set to 20 ppm, 10 ppm was used for the main peptide search and fragment mass tolerance was set to 0.02 Da. The false discovery rate for peptides, proteins and sites identification was set to 1%. The minimum peptide length was set to 6 amino acids and peptide re-quantification, label-free quantification (MaxLFQ) and “ ” were enabled. The minimal number of peptides per protein was set to two. Oxidized methionines and N-terminal acetylation were searched as variable modifications and carbamidomethylation of cysteines was searched as a fixed modification. For SILAC experiments 13C6 L-lysine and 13C6 15N4 L-arginine were set as heavy isotope labels and 12C6 L-lysine and 12C6 14N4 L-arginine as light isotope labels.
19 d k g h ARγ. 19a was covalently docked to the crystal structure of human γ ZU 190 using the GOLD suite (V5.3, CCDC). The default GOLD fitness function was used to determine the best binding configuration. The distance for hydrogen bonding was set to 3 Å.
IAA competition of 23c, 24c and DEP h ARγ. γ
(500 ng in 9 µL PBS) was treated with either 100 µM DEP, 23c, 24c or DMSO (1 µL of 10x stock in DMSO) for one hour. Samples were denatured with 6 M urea in 50 mM NH4HCO3, […]
in the dark. Samples were diluted to 2 M urea with 50 mM NH4HCO3, and digested with trypsin […]

CN(CCOc1ccc(CC2SC(=O)NC2=O)cc1)c1ccccn1 (centres unmarked) [Rosiglitazone, rosiglitazone]
Log2 10 µM Rosiglitazone/DMSO (protein ALDH3B1, 24 h): -0.32 | Log2 10 µM Rosiglitazone/DMSO (protein ARHGAP17, 24 h): 0.39 | Log2 10 µM Rosiglitazone/DMSO (protein ARMCX3, 24 h): -0.36 | Log2 10 µM Rosiglitazone/DMSO (protein COL4A3BP, 24 h): -0.06 | Log2 10 µM Rosiglitazone/DMSO (protein CROT, 24 h): 0.034 | Log2 10 µM Rosiglitazone/DMSO (protein CTBP2, 24 h): 0.36 | Log2 10 µM Rosiglitazone/DMSO (protein DDX21, 24 h): 0.15 | Log2 10 µM Rosiglitazone/DMSO (protein FNTA, 24 h): -0.12 | Log2 10 µM Rosiglitazone/DMSO (protein GID8, 24 h): 0.46 | Log2 10 µM Rosiglitazone/DMSO (protein GIPC2, 24 h): 0.0144 | Log2 10 µM Rosiglitazone/DMSO (protein GIT2, 24 h): -0.38 | Log2 10 µM Rosiglitazone/DMSO (protein GSTA1, 24 h): 0.21 | Log2 10 µM Rosiglitazone/DMSO (protein GSTA2, 24 h): 0.20 | Log2 10 µM Rosiglitazone/DMSO (protein GSTM3, 24 h): 0.30 | Log2 10 µM Rosiglitazone/DMSO (protein HIGD1A, 24 h): 0.43 | Log2 10 µM Rosiglitazone/DMSO (protein IREB2, 24 h): 0.26 | Log2 10 µM Rosiglitazone/DMSO (protein ITGB4, 24 h): 0.08 | Log2 10 µM Rosiglitazone/DMSO (protein LDHD, 24 h): -0.20 | Log2 10 µM Rosiglitazone/DMSO (protein LDLR, 24 h): 0.49 | Log2 10 µM Rosiglitazone/DMSO (protein LIPA, 24 h): 0.034 | Log2 10 µM Rosiglitazone/DMSO (protein MARCH5, 24 h): 0.40 | Log2 10 µM Rosiglitazone/DMSO (protein MGMT, 24 h): -0.17 | Log2 10 µM Rosiglitazone/DMSO (protein MYO15B, 24 h): 0.08 | Log2 10 µM Rosiglitazone/DMSO (protein NOP9, 24 h): 0.07 | Log2 10 µM Rosiglitazone/DMSO (protein OAS1, 24 h): 0.0144 | Log2 10 µM Rosiglitazone/DMSO (protein OGDHL, 24 h): 0.10 | Log2 10 µM Rosiglitazone/DMSO (protein PANK4, 24 h): -0.34 | Log2 10 µM Rosiglitazone/DMSO (protein PHPT1, 24 h): -0.36 | Log2 10 µM Rosiglitazone/DMSO (protein PSIP1, 24 h): 0.49 | Log2 10 µM Rosiglitazone/DMSO (protein RAB5B, 24 h): 0.49 | Log2 10 µM Rosiglitazone/DMSO (protein RBP4, 24 h): 0.20 | Log2 10 µM Rosiglitazone/DMSO (protein RRS1, 24 h): 0.50 | Log2 10 µM Rosiglitazone/DMSO (protein SAMHD1, 24 h): -0.43 | Log2 10 µM Rosiglitazone/DMSO (protein SCAMP3, 24 h): 0.45 | Log2 10 µM Rosiglitazone/DMSO (protein SETDB1, 24 h): 0.08 | Log2 10 µM Rosiglitazone/DMSO (protein SLC26A3, 24 h): 0.10 | Log2 10 µM Rosiglitazone/DMSO (protein SLC39A14, 24 h): -0.49 | Log2 10 µM Rosiglitazone/DMSO (protein STK4, 24 h): 0.36 | Log2 10 µM Rosiglitazone/DMSO (protein SURF6, 24 h): 0.26 | Log2 10 µM Rosiglitazone/DMSO (protein TGOLN2, 24 h): 0.28 | Log2 10 µM Rosiglitazone/DMSO (protein TPD52L1, 24 h): -0.45 | Log2 10 µM Rosiglitazone/DMSO (protein TTR, 24 h): 0.46 | Log2 10 µM Rosiglitazone/DMSO (protein VPS52, 24 h): 0.42

O=C(Nc1ccncc1)c1cc([N+](=O)[O-])ccc1Cl [T0070907]
Log2 50 µM T0070907/DMSO (protein ALDH3B1, 24 h): -0.79 | Log2 50 µM T0070907/DMSO (protein ARHGAP17, 24 h): -0.81 | Log2 50 µM T0070907/DMSO (protein ARMCX3, 24 h): -0.71 | Log2 50 µM T0070907/DMSO (protein COL4A3BP, 24 h): -0.76 | Log2 50 µM T0070907/DMSO (protein CROT, 24 h): -0.85 | Log2 50 µM T0070907/DMSO (protein CTBP2, 24 h): 0.83 | Log2 50 µM T0070907/DMSO (protein DDX21, 24 h): 0.92 | Log2 50 µM T0070907/DMSO (protein FNTA, 24 h): -0.97 | Log2 50 µM T0070907/DMSO (protein GID8, 24 h): 0.60 | Log2 50 µM T0070907/DMSO (protein GIPC2, 24 h): -0.69 | Log2 50 µM T0070907/DMSO (protein GIT2, 24 h): -0.89 | Log2 50 µM T0070907/DMSO (protein GSTA1, 24 h): -0.76 | Log2 50 µM T0070907/DMSO (protein GSTA2, 24 h): -0.80 | Log2 50 µM T0070907/DMSO (protein GSTM3, 24 h): -0.71 | Log2 50 µM T0070907/DMSO (protein HIGD1A, 24 h): 0.70 | Log2 50 µM T0070907/DMSO (protein IREB2, 24 h): 0.96 | Log2 50 µM T0070907/DMSO (protein ITGB4, 24 h): 1.36 | Log2 50 µM T0070907/DMSO (protein LDHD, 24 h): -0.67 | Log2 50 µM T0070907/DMSO (protein LDLR, 24 h): 1.99 | Log2 50 µM T0070907/DMSO (protein LIPA, 24 h): -0.85 | Log2 50 µM T0070907/DMSO (protein MARCH5, 24 h): 1.21 | Log2 50 µM T0070907/DMSO (protein MGMT, 24 h): -0.69 | Log2 50 µM T0070907/DMSO (protein MYO15B, 24 h): -0.74 | Log2 50 µM T0070907/DMSO (protein NOP9, 24 h): 1.10 | Log2 50 µM T0070907/DMSO (protein OAS1, 24 h): 0.92 | Log2 50 µM T0070907/DMSO (protein OGDHL, 24 h): -1.02 | Log2 50 µM T0070907/DMSO (protein PANK4, 24 h): -0.81 | Log2 50 µM T0070907/DMSO (protein PHPT1, 24 h): -1.25 | Log2 50 µM T0070907/DMSO (protein PSIP1, 24 h): 0.60 | Log2 50 µM T0070907/DMSO (protein RAB5B, 24 h): 0.62 | Log2 50 µM T0070907/DMSO (protein RBP4, 24 h): -0.37 | Log2 50 µM T0070907/DMSO (protein RRS1, 24 h): 0.77 | Log2 50 µM T0070907/DMSO (protein SAMHD1, 24 h): -0.81 | Log2 50 µM T0070907/DMSO (protein SCAMP3, 24 h): 0.64 | Log2 50 µM T0070907/DMSO (protein SETDB1, 24 h): 0.63 | Log2 50 µM T0070907/DMSO (protein SLC26A3, 24 h): -1.02 | Log2 50 µM T0070907/DMSO (protein SLC39A14, 24 h): -0.69 | Log2 50 µM T0070907/DMSO (protein STK4, 24 h): -0.81 | Log2 50 µM T0070907/DMSO (protein SURF6, 24 h): 0.78 | Log2 50 µM T0070907/DMSO (protein TGOLN2, 24 h): 0.93 | Log2 50 µM T0070907/DMSO (protein TPD52L1, 24 h): -1.09 | Log2 50 µM T0070907/DMSO (protein TTR, 24 h): -1.25 | Log2 50 µM T0070907/DMSO (protein VPS52, 24 h): 0.77
